Like-named read-outs stand apart in the source and are kept apart here. Starred links: 1 amine or outer side, 2 acyl side, 3 side chain; linkers in the order of their positions; H or OH if unused. Non-standard residues stand in square brackets, D forms with d. Residues, ends and D or L forms follow the SMILES beside them. Phe(4-NO2) = N[C@@H](Cc1ccc([N+](=O)[O-])cc1)C(=O)O; Phe(3-F) = N[C@@H](Cc1cccc(F)c1)C(=O)O; Phe(2-F) = N[C@@H](Cc1ccccc1F)C(=O)O; Maleoyl = O=C(/C=C\C(=O)[*:2])[*:1]; pS = N[C@@H](COP(=O)(O)O)C(=O)O; Suc = O=C(CCC(=O)[*:2])[*:1]
Columns and labels:
βTrCP [1] = biological target: T1, βTrCP (Homo sapiens, UniProt Q9Y297); assay: Biotin pull down assay with biotinylated IκB peptide; type: binding; settings: for Biotin Pulldown Assay 10 μM: 10 μM compound; for Biotin Pulldown Assay 100 μM: 100 μM compound
T1 sequence (Q9Y297 1-605): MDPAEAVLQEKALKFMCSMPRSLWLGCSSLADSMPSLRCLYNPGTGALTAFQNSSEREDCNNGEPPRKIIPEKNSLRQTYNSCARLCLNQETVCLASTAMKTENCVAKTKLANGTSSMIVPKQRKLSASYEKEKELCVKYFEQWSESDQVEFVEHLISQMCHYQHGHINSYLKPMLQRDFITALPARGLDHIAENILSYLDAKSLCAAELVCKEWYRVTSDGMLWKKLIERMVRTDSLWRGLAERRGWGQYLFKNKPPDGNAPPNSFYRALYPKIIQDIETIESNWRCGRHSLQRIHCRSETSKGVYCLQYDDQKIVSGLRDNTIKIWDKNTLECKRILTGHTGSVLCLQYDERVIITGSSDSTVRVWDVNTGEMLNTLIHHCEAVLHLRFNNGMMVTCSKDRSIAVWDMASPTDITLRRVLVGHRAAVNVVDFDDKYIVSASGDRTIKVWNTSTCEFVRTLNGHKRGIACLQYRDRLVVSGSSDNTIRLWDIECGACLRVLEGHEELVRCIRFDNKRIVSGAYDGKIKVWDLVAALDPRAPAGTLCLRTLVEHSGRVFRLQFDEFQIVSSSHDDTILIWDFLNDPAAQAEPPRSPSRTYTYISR

FBW7/Skp1 = FBW7/Skp1 (Homo sapiens, UniProt Q969H0); assay: Selectivity assay vs other E3s: Fbw7; type: biochemical; settings: for inhibition at 100 µM: value in brackets, read-out: % Inhibition Fbw7 @ (100 μM); for inhibition at 10 µM: read-out: % Inhibition Fbw7 @ 10 μM
Chain of FBW7/Skp1 (Q969H0 whole entry, species assumed): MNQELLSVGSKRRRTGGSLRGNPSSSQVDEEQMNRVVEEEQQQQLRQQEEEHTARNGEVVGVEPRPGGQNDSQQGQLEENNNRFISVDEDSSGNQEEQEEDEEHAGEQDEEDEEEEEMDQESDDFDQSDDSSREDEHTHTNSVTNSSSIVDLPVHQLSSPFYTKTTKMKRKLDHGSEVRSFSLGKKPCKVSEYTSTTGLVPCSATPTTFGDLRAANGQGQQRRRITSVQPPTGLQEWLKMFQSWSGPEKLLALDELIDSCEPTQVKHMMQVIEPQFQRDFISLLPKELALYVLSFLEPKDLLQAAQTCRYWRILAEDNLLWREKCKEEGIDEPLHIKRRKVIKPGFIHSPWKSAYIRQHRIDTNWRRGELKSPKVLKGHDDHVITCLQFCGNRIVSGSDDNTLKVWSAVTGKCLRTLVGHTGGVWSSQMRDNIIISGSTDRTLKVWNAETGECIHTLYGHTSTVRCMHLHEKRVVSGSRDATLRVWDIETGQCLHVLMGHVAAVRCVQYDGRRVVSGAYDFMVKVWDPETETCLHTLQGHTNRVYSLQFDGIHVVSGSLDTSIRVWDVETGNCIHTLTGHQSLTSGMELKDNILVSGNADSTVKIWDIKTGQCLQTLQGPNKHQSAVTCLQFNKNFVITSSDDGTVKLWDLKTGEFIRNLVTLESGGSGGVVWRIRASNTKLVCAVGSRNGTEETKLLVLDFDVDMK
Chain of FBW7/Skp1 (P63208 whole entry partner, species assumed): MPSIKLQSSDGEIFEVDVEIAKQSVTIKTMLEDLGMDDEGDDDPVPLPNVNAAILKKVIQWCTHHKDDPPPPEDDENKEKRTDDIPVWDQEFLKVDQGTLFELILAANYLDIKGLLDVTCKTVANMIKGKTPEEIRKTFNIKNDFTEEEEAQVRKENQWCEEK
Chain of FBW7/Skp1 (Q13616 whole entry partner, species assumed): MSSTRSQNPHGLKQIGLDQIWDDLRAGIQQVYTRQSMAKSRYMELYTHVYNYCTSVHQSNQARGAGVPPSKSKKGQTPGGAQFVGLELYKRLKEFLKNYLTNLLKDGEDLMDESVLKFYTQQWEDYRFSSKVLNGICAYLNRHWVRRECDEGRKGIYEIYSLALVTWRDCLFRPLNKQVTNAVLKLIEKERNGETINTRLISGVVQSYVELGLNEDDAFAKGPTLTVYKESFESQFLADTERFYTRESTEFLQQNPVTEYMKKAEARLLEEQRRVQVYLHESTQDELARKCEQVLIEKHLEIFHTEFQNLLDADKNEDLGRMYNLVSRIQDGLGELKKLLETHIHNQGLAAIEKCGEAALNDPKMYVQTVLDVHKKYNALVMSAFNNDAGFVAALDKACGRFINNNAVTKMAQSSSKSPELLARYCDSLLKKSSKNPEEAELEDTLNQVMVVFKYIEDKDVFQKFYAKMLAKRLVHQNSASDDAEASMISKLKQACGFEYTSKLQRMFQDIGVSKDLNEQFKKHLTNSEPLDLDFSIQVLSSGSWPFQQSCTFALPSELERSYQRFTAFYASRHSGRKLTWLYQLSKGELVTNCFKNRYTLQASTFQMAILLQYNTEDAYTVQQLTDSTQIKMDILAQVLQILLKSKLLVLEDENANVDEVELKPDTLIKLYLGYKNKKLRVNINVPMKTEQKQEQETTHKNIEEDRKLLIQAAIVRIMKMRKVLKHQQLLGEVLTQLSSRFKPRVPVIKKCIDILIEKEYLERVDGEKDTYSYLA
Chain of FBW7/Skp1 (P62877 whole entry partner, species assumed): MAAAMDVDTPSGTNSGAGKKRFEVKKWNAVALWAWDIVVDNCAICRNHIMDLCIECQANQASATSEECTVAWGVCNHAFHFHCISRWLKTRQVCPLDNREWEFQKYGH
Method in brief: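 FBW7/Skp1 E3 ubiquitination of cyclin E substrate in 50 mM HEPES pH 7.5, 75 mM NaCl, 1 mM DTT; preincubated 30 min at room temperature before Mg/ATP, then 60 min more. Products resolved by 10% SDS-PAGE and immunoblotted with anti-cyclin E.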

Skp2 = Skp2 (Homo sapiens, UniProt Q13309); assay: Selectivity assay vs other E3s: Skp2; type: biochemical; settings: for inhibition at 100 µM: value in brackets, read-out: % Inhibition Skp2 @ (100 μM); for inhibition at 10 µM: read-out: % Inhibition Skp2 @ 10 μM
Chain of Skp2 (Q13309 whole entry, species assumed): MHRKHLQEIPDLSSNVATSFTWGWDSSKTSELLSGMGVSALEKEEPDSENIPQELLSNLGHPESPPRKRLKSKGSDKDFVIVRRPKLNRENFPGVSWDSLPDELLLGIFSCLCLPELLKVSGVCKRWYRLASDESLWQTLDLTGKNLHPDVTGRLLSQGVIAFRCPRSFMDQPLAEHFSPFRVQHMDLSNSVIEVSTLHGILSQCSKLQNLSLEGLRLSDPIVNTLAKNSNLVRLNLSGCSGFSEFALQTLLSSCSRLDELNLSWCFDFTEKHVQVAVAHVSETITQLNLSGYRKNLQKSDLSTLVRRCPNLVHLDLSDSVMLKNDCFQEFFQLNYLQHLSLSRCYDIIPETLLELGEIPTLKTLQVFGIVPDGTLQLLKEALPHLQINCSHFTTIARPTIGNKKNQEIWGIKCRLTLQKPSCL
Chain of Skp2 (P63208 whole entry partner, species assumed): as the sequence (P63208 whole entry partner, species assumed) above
Chain of Skp2 (Q13616 whole entry partner, species assumed): as the sequence (Q13616 whole entry partner, species assumed) above
Chain of Skp2 (P62877 whole entry partner, species assumed): as the sequence (P62877 whole entry partner, species assumed) above
Method in brief: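 Skp2 ubiquitination was measured in master mixes of 50 mM Herpes buffer, pH 7.5, with 75 mM NaCl and 1 mM DTT, lacking Mg or ATP. Test compounds were preincubated for 30 minutes at room temperature, Mg/ATP was added for a further 60 minutes, and reactions were boiled in SDS loading buffer, resolved on 10% SDS-PAGE, blotted to nitrocellulose and probed with HRP-Streptavidin.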

βTrCP [2] = biological target: βTrCP (Homo sapiens, UniProt Q9Y297); assay: Fluorescence polarisation (FP) binding assay with fluorescein-tagged IκB peptide
Target sequence in this assay (P63208 whole entry partner, one chain of several): as the sequence (P63208 whole entry partner, species assumed) above

β-TrCP1/Skp1 = β-TrCP1/Skp1 (Homo sapiens, UniProt Q9Y297); assay: βTrCP ubiquitination assay (Ub assay); type: biochemical; settings: for Ub Assay 10 μM: 10 μM compound; for Ub Assay 100 μM: 100 μM compound
Chain of β-TrCP1/Skp1 (P63208 2-163 partner limits assumed, one chain of several): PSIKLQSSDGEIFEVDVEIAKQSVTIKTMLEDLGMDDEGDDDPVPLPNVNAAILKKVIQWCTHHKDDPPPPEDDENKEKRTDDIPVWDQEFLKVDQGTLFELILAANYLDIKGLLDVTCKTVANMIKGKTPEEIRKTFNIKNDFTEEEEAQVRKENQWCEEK
Method in brief: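 Compounds tested in duplicate at 10 and 100 μM in βTrCP(IκBα) and βTrCP(β-catenin) cascades with UBE1 E1, UbcH3 E2 and biotinylated ubiquitin; substrate phosphorylation done without compound, ubiquitination steps with compound. Product captured on anti-c-Myc plates and detected with SA-Ru TAG by MSD electrochemiluminescence.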

βTrCP/Skp1 = βTrCP/Skp1 (Homo sapiens, UniProt Q9Y297); assay: Surface plasmon resonance (SPR), Biacore T200; type: binding; settings: apparent KD averaged over both surfaces
Chain of βTrCP/Skp1 (P63208 whole entry partner, one chain of several): as the sequence (P63208 whole entry partner, species assumed) above
Method: Surface Plasmon Resonance (SPR)
Experiments were carried out using the Biacore T200 SPR detection system. This system exploits the phenomenon of surface plasmon resonance (SPR) to monitor interactions between molecules. The system involves the attachment of one interacting partner to a surface (an appropriate sensor chip) while the other interacting partner is passed over it in solution. The binding of molecules to the surface generates an SPR response (measured in response units (RU)) that is proportional to the mass and amount of the biomolecule (in this case βTrCP/Skp1) bound to the chip. The relative responses obtained are dependent on the concentration of the molecule binding. At RUmaximum, the attached protein's binding sites are saturated. Binding events can be followed in real time and a range of interaction characteristics can be determined including kinetics, specificity of interactions and the concentration of specific molecules in a sample.
As βTrCP was His tagged, an NTA sensor chip was used. This sensor chip has a dextran surface matrix with immobilized nitrilotriacetic acid (NTA) which provides a means of capturing polyHis-tagged proteins through Nickel chelation. It was hoped that addition of Ni^+ would orient the protein in a specific (and hopefully active) manner as it is covalently immobilised via amine coupling. Addition of EDC:NHS (N-ethyl-N′-(3-[…])-carbodiimide:N-hydroxysuccinimide) converts carboxyl groups on the dextran sensor chip surface to succinamide esters which readily form covalent bonds with primary amines. Each chip contains four flow cells (each a separate surface) which means that compounds/peptides can be passed over different forms of βTrCP and a reference surface simultaneously. If binding to βTrCP is occurring, responses should be the same (accounting for differences in density of surface etc) on each surface.
Two different βTrCP protein complexes were immobilised on to an NTA biacore sensor chip. One included the GSTSkp1 fusion (HisβTrCP/GSTSkp1) while the other was immobilised after GST Removal by Thrombin (HisβTrCP/Skp1). To ensure that the GST moiety is completely removed from Skp1, βTrCP/GSTSkp1 was incubated with thrombin ((10units/mg protein) for at least 16 hours at room temperature in 10mMHEPES 150mMNaCl pH7.4+2 mM CaCl2. Thrombin and GST were removed from βTrCP/Skp1 by buffer exchange through a 50 KDa MWCO vivaspin concentrator.
Protein Immobilisation Procedure for NTA Chip
Ni+ (500 μM NiCl) loaded on to surface at a flow rate of 5 μl/min for 60s. EDC/NHS (activates dextran carboxylates) loaded at a flow rate of 5 μl/min for 240s. Protein ([protein]=100 nM to 1 μM) loaded at a flow rate of 10 μl/min for 180s. Strip solution (350 μM EDTA/1M NaCl) added at flow rate of 10 μl/min for 30s (to chelate excess Ni+ and remove non-covalently bound protein e.g. protein oligomers). Quench solution (ethanolamine) at flow rate of 5 μl/min for 240s (to deactivate surface molecules on the chip that have not crosslinked protein). The immobilisation buffer used was 10 mM HEPES pH 7.4, 150 mM NaCl,
GST Capture Procedure (for Immobilisation Via GSTSkp1)
EDC:NHS was injected at 5 μl/min for 4 min to activate surface for amine coupling (this converts carboxyl groups on the surface of the chip to succinamide esters that react with primary amines)
Anti-GST (60 μg/ml). was loaded at 10 μl/min for 4 min resulting in an increase in response units of 6730 (Biacore manual states it should result in ˜7000)
Ethanolamine was injected at 5 μl/min for 5 min to deactivate remaining unreacted esters at surface (quenching).
Injection of a low concentration of purified GST (from kit) was injected for 3 mins at 5 μl/min before running a regeneration cycle with glycine pH2.0 that disrupts the antibody-GST interaction. […]

[3] = Table 11, with spread, read-out: FP IC50/μM
[4] = Tables 1, 3, 7, 8, 10 nM fluorescein-tagged IκB peptide, read-out: FP Assay IC50/μM

NC(=O)[C@H](CCC(=O)O)NC(=O)[C@H](Cc1ccccc1)NC(=O)[C@H](Cc1ccc(O)cc1)NC(=O)CNC(=O)[C@H](CCC(=O)O)NC(=O)CCC(=O)O [UBP007, Suc-EGYFE-NH2] (Suc-EGYFE-NH2)
Biotin Pulldown Assay 10 μM (βTrCP [1]): no effect/ | Biotin Pulldown Assay 100 μM (βTrCP [1]): inhibits | inhibition at 100 µM (FBW7/Skp1): 0% | inhibition at 10 µM (FBW7/Skp1): 0% | inhibition at 100 µM (Skp2): 28% | inhibition at 10 µM (Skp2): 11% | IC50 (βTrCP [2]; [3]): 1.04 ± 0.101 µM | IC50 (βTrCP [2]; [4]): 1 µM | Ub Assay 10 μM (β-TrCP1/Skp1): reduces/ | Ub Assay 100 μM (β-TrCP1/Skp1): inhibits | Kd (βTrCP/Skp1): 0.537 ± 0.117 µM

CC[C@H](C)[C@H](NC(=O)CNC(=O)[C@H](COP(=O)(O)O)NC(=O)[C@@H](N)CC(=O)O)C(=O)N[C@@H](Cc1ccccc1)C(=O)N[C@@H](CCC(=O)O)C(N)=O [UBP001, DpSGIFE-NH2] (H-D[pS]GIFE-NH2)
Biotin Pulldown Assay 10 μM (βTrCP [1]): reduces/ | Biotin Pulldown Assay 100 μM (βTrCP [1]): inhibits | inhibition at 100 µM (FBW7/Skp1): 0% | inhibition at 10 µM (FBW7/Skp1): 0% | inhibition at 100 µM (Skp2): 13% | inhibition at 10 µM (Skp2): 8% | IC50 (βTrCP [2]; [3]): 1.24 ± 0.145 µM | Ub Assay 10 μM (β-TrCP1/Skp1): reduces/ | Ub Assay 100 μM (β-TrCP1/Skp1): inhibits | Kd (βTrCP/Skp1): 1.48 ± 0.286 µM

NC(=O)[C@H](CCC(=O)O)NC(=O)[C@H](Cc1c[nH]c2ccccc12)NC(=O)[C@H](Cc1cccc(F)c1)NC(=O)CNC(=O)[C@H](CCC(=O)O)NC(=O)CCC(=O)O [UBP014, Suc-EGF(3F)WE-NH2] (Suc-EG[Phe(3-F)]WE-NH2)
Biotin Pulldown Assay 10 μM (βTrCP [1]): reduces/ | Biotin Pulldown Assay 100 μM (βTrCP [1]): inhibits | inhibition at 100 µM (FBW7/Skp1): 0% | inhibition at 10 µM (FBW7/Skp1): 0% | inhibition at 100 µM (Skp2): 6% | inhibition at 10 µM (Skp2): 5% | IC50 (βTrCP [2]; [3]): 0.095 ± 0.009 µM | IC50 (βTrCP [2]; [4]): 0.095 µM | Ub Assay 10 μM (β-TrCP1/Skp1): reduces/ | Ub Assay 100 μM (β-TrCP1/Skp1): inhibits | Kd (βTrCP/Skp1): 0.455 ± 0.03 µM

NC(=O)[C@H](CCC(=O)O)NC(=O)[C@H](Cc1ccc([N+](=O)[O-])cc1)NC(=O)[C@H](Cc1ccccc1F)NC(=O)CNC(=O)[C@H](CCC(=O)O)NC(=O)CCC(=O)O [UBP003, Suc-EGF(2F)F(4NO2)E-NH2] (Suc-EG[Phe(2-F)][Phe(4-NO2)]E-NH2)
Biotin Pulldown Assay 10 μM (βTrCP [1]): no effect/ | Biotin Pulldown Assay 100 μM (βTrCP [1]): reduces | inhibition at 100 µM (FBW7/Skp1): 0% | inhibition at 10 µM (FBW7/Skp1): 0% | inhibition at 100 µM (Skp2): 11% | inhibition at 10 µM (Skp2): 8% | IC50 (βTrCP [2]; [3]): 4.91 ± 0.702 µM | Ub Assay 10 μM (β-TrCP1/Skp1): no effect/ | Ub Assay 100 μM (β-TrCP1/Skp1): inhibits | Kd (βTrCP/Skp1): 8 ± 0.26 µM

NC(=O)[C@H](CCC(=O)O)NC(=O)[C@H](Cc1ccc([N+](=O)[O-])cc1)NC(=O)[C@H](Cc1cccc(F)c1)NC(=O)CNC(=O)[C@H](CCC(=O)O)NC(=O)/C=C\C(=O)O [UBP008, Mal-EGF(3F)F(4NO2)E-NH2] (Maleoyl-EG[Phe(3-F)][Phe(4-NO2)]E-NH2)
Biotin Pulldown Assay 10 μM (βTrCP [1]): no effect/ | Biotin Pulldown Assay 100 μM (βTrCP [1]): inhibits | inhibition at 100 µM (FBW7/Skp1): 18% | inhibition at 10 µM (FBW7/Skp1): 0% | inhibition at 100 µM (Skp2): 14% | inhibition at 10 µM (Skp2): 0% | IC50 (βTrCP [2]; [3]): 2.17 ± 0.425 µM | Ub Assay 10 μM (β-TrCP1/Skp1): no effect/ | Ub Assay 100 μM (β-TrCP1/Skp1): inhibits | Kd (βTrCP/Skp1): 1.46 ± 0.035 µM

Source: US20190106460A1, “BINDING INHIBITORS OF THE BETA. TRANSDUCIN REPEAT-CONTAINING PROTEIN” (priority 2011, published 2019)
